“And” between values parts separate entries of the source, which are not always exact repeats. Equal entries are not always repeated.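 Tested at 5 concentrations; 48 h exposure; 96-well plates; endpoints linearly interpolated, else capped at highest concentration. GI50 is the concentration that inhibits growth by half. TGI marks complete inhibition of growth.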
Columns and labels:
Assay in all cases: NCI tumour cell line growth inhibition, 48 h
ACHN renal = tested on: ACHN renal
SF-295 CNS = tested on: SF-295 CNS
HOP-62 NSCLC = tested on: HOP-62 NSCLC
UACC-257 melanoma = tested on: UACC-257 melanoma
MALME-3M melanoma = tested on: MALME-3M melanoma
NCI-H460 lung = tested on: NCI-H460 lung
SW-620 colon = tested on: SW-620 colon
SN12C renal = tested on: SN12C renal
LOX IMVI melanoma = tested on: LOX IMVI melanoma
PC-3 prostate = tested on: PC-3 prostate

Structure (SMILES) | TGI (ACHN renal) | TGI (SF-295 CNS) | TGI (HOP-62 NSCLC) | TGI (UACC-257 melanoma) | TGI (MALME-3M melanoma) | TGI (NCI-H460 lung) | TGI (SW-620 colon) | TGI (SN12C renal) | TGI (LOX IMVI melanoma) | TGI (PC-3 prostate) | GI50 (SN12C renal) | GI50 (SF-295 CNS) | GI50 (HOP-62 NSCLC) | GI50 (UACC-257 melanoma) | GI50 (MALME-3M melanoma) | GI50 (LOX IMVI melanoma) | GI50 (NCI-H460 lung) | GI50 (SW-620 colon)
Cc1c(Cl)c2ccccc2n1S(=O)(=O)c1ccccc1 | > 100 µM | > 100 µM | > 100 µM | > 100 µM | > 100 µM | > 100 µM | > 100 µM |  |  |  |  |  |  |  |  |  |  | 
O=C(c1ccc(Cl)cc1)c1ccc(OCCCOc2ccc(C(=O)c3ccc(Cl)cc3)cc2)cc1 | > 100 µM | > 100 µM | > 100 µM | > 100 µM | > 100 µM | > 100 µM | > 100 µM | > 100 µM | > 100 µM |  |  |  |  |  |  |  |  | 
CCc1cc(Cc2cc(Cl)c(NC(=O)C(=O)C3NC(=O)NC3=O)c(CC)c2)cc(Cl)c1NC(=O)C(=O)C1NC(=O)NC1=O (stereo unspecified) | > 100 µM | > 100 µM | > 100 µM | > 100 µM | > 100 µM | > 100 µM | 24.1 µM | > 100 µM | > 100 µM |  |  |  |  |  |  |  |  | 
N#CC1=C(N)n2c(s/c(=C\c3ccc(Cl)cc3)c2=O)=C(c2nc3ccccc3[nH]2)C1c1ccc(Cl)cc1 (stereo unspecified) | 5.26 µM |  | 4.68 µM | 7.84 µM | 4.74 µM | 8.03 µM | 3.03 µM | 4.6 µM | 3.23 µM |  |  |  |  |  |  |  |  | 
Cc1c(Cl)nc(Nc2nc3ccccc3[nH]2)nc1Cl | > 100 µM | > 100 µM |  | > 100 µM | > 100 µM | > 100 µM | > 100 µM | > 100 µM |  | > 100 µM |  |  |  |  |  |  |  | 
O=C(/N=C/c1c(O)c2ccccc2oc1=O)Nc1ccccc1 | > 100 µM | > 100 µM |  | > 100 µM | 94 µM | > 100 µM | > 100 µM | > 100 µM | > 100 µM |  |  |  |  |  |  |  |  | 
C[n+]1c(-c2ccc(/C=N/NC(=N)N/N=C/c3ccc(-c4cn5cc(Cl)ccc5[n+]4C)cc3)cc2)cn2cc(Cl)ccc21 | > 100 µM | > 100 µM | > 100 µM | > 100 µM |  | > 100 µM | > 100 µM | > 100 µM |  | > 100 µM |  |  |  |  |  |  |  | 
BrCCCCCOc1ccc(-c2c3ccccc3c(-c3ccc(OCCCCCBr)cc3)c3ccccc23)cc1 | > 100 µM | > 100 µM | > 100 µM | > 100 µM |  | > 100 µM | > 100 µM | > 100 µM |  | > 100 µM |  |  |  |  |  |  |  | 
NC(CCCC(N)P(=O)(O)c1ccccc1)P(=O)(O)c1ccccc1 (stereo unspecified) | > 261 µM | > 261 µM | > 261 µM | > 261 µM | > 261 µM | > 261 µM | > 261 µM | > 261 µM | > 261 µM |  |  |  |  |  |  |  |  | 
COC(=O)CCC(=O)NC1=C(NCc2ccccc2)C(=O)c2ccccc2C1=O | > 100 µM | > 100 µM |  | 34.1 µM |  | > 100 µM | 59.2 µM | 88.2 µM | 77.2 µM | > 100 µM |  |  |  |  |  |  |  | 
CN1CCCC2(CCCc3ccccc32)C1 (stereo unspecified) | > 100 µM | > 100 µM | > 100 µM | > 100 µM | > 100 µM | > 100 µM | > 100 µM | > 100 µM | > 100 µM |  |  |  |  |  |  |  |  | 
OC(c1cc2ccccc2o1)c1cc2ccccc2s1 (stereo unspecified) | > 10 µM | > 10 µM | > 10 µM | > 10 µM |  | > 10 µM | > 10 µM | > 10 µM | > 10 µM | > 10 µM |  |  |  |  |  |  |  | 
Cc1cccc2c(=O)c([Se]c3coc4c(C)cccc4c3=O)coc12 | 38.3 µM | 17.8 µM | 32.9 µM | 38.5 µM | 33.6 µM | 21.3 µM | 39.1 µM | 37.9 µM | 35.5 µM |  |  |  |  |  |  |  |  | 
Cc1ccsc1/C=N/Nc1nc2ccccc2s1 | 30.8 µM | 23.8 µM | 22.4 µM | 51.4 µM |  |  | 94.9 µM | 41.3 µM | > 100 µM | 50.1 µM |  |  |  |  |  |  |  | 
N[C@H](C(=O)O)[C@H]1ON=C(Cl)[C@@H]1O |  | > 550 µM | 78.2 µM | > 550 µM | > 255 µM | > 52.9 µM and 174 µM | > 550 µM | > 550 µM | > 550 µM |  | 13.6 µM | 2.83 µM | 16 µM | > 51.1 µM | 40.2 µM | 1.54 µM | 3.92 µM | 8.09 µM
Cc1ccc(N2Cc3c(ccc4ccccc34)OP2(=O)Oc2ccc(Cl)c(C)c2)cc1 (stereo unspecified) |  | > 100 µM | > 100 µM | > 100 µM | > 100 µM | > 100 µM | > 100 µM | > 100 µM | > 100 µM |  |  |  |  |  |  |  |  | 
